Experimental data as given in US20020143047A1, “Methods for treating indomethacin responsive headaches” (priority 2001, published 2002).

Tested on: patient suffering from hemicrania continua and ulceritive colitis
Test: Clinical treatment of a patient with hemicrania continua: topical indomethacin patch, and prior oral indomethacin
Format: in vivo, human
Experimental: Typically, the symptom ameliorated by the subject methods is pain associated with the syndrome being treated. In many embodiments, the intensity of pain associated with the syndrome is at least reduced, if not eliminated. Reduction in pain intensity is evaluated according to the protocol described at pages 161-176, and particularly page 172, of “Guidelines for Controlled Trials of Drugs in Cluster Headache,” published by the International Headache Society Committee on Clinical Trials in Cluster Headache. The magnitude of reduction in pain intensity is generally at least about 10%, usually at least about 25% and more usually at least about 50%, where magnitude of reduction may be as high as 75%, 80%, 95% or higher, including a complete cessation of pain, as determined by the assay described above.
The topical formulation described in I, above, was employed to treat a patient suffering from hemicrania continua and ulceritive colitis. The patient suffered from a six-year history of constant right-sided hemicranial pain of mild to moderate severity. Superimposed exacerbations of more intense pain occurred twice weekly and would last up to twelve hours. These painful exacerbations were associated with ipsilateral ptosis, conjunctival injection and lacrimation.
The patient was then treated with the topical application of indomethacin described in I, above, by applying the topical application to the site of maximal pain, i.e. the right forehead and temple. […] The patient was then instructed to reapply the patch twice daily, at twelve hour intervals. […] This was a favorable result compared with other forms of treatment that the patient had previously employed, whereas despite appropriate therapy, the patient's other medical condition worsened in response to oral administration of indomethacin.

[1] = prior treatment, 25 mg, three times daily

COc1ccc2c(c1)c(CC(=O)O)c(C)n2C(=O)c1ccc(Cl)cc1 [indomethacin, Indomethacin]
effect on gastrointestinal symptoms (decreased dosage): continued to aggravate the gastrointestinal symptoms | effect on headache syndrome (decreased dosage): did not abolish the headache syndrome | effect on pain [1]: complete resolution of pain | effect on patient's ulcerative colitis [1]: significant worsening
